Results as given in patent publication US4202891A, “15-Oxygenated sterol compounds and the use of such compounds to inhibit the biosynthesis of sterols” (priority 1977, dated 1980).

Assays:
[1] = Food consumption of rats, sterol in diet; type: in vivo, rat (male, Sprague-Dawley)
Source text: Male rats of the Sprague-Dawley strain were purchased from Sprague-Dawley Farms (Madison, Wisconsin). The rats were maintained on a light (7:00 A.M.-5:30 P.M.)--dark (5:30 P.M.-7:00 A.M.) cycle and fed a Cholesterol Free Test Diet (United States Biochemical Corporation, Cleveland, Ohio) for a period of 13 days prior to the initiation of the experimental period. Six days prior to the initiation of the experimental period blood samples were taken for assay of serum cholesterol concentration and, based upon the results of these analyses, rats were divided into 3 groups with approximately the same mean serum cholesterol concentration. The rats were then individually housed in metabolic cages (Econo-Metabolism Units, Maryland Plastics, New York, New York) for 6 days prior to the initiation of the experimental period. The animals were maintained on the light-dark cycle throughout the experimental period.
The individual animals were weighed daily throughout the experimental period. Food consumption by the individual rats was similarly recorded daily. No significant spillage of the food or contamination of the food by feces or urine was possible due to the nature of the matabolic cage and the food receptacles utilized.
5α-Cholest-8(14)-en-3β-ol-15-one (500 mg), prepared and purified as described in Example 1, was added in small portions to 500 g of the Cholesterol Free Test Diet in a 2 liter glass stoppered bottle. After each addition of the sterol to the diet, the bottle was rolled and shaken thoroughly. The resulting 0.1% diet with respect to the 5α-cholest-8(14)-en-3β-ol-15-one was stored at 4° C. Prior to use in feeding, the diet was allowed to warm to room temperature (~25° C.).
2. Ketone group--7 rats with free access to the Cholesterol Free Test Diet containing 0.1% 5α-cholest-8(14)-en-3β-ol-15-one.
(§1) Another experiment following essentially the procedure of Example 43 was performed in which the 5α-cholest-8(14)-en-3β-ol-15-one was incorporated into the Cholesterol Free Test Diet at a concentration of 0.2%.

[2] = Adverse observations in rats on 0.2% ketone diet; type: in vivo, rat (male, Sprague-Dawley); details: 0.2% in diet
Protocol: as §1

[3] = test system: sterol biosynthesis in L cells; assay: Inhibition of sterol synthesis from [1-14C]acetate in L cell cultures; type: cell-based; details: Mus musculus; L cell cultures; read-out: Concentrations Required for 50% Inhibition of Sterol Synthesis
Summary of the method: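 Mouse L cells (NCTC clone 929 subline) in serum-free defined medium, preincubated 4 h with 15-oxygenated sterols, then given [1-14C]acetate at 4 μmoles per ml (4 μCi per ml). Sterol synthesis expressed as [14C]sterols/[14C]fatty acids ratio; 50% inhibitory concentration located over at least 4 compound concentrations.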

[4] = test system: sterol biosynthesis in primary cultures of mouse liver cells; assay: Inhibition of sterol synthesis from [1-14C]acetate in primary cultures of liver cells; type: cell-based; details: primary cultures of liver cells, read-out: Concentrations Required for 50% Inhibition of Sterol Synthesis
Protocol: The effect of various 15-oxygenated sterols on sterol biosynthesis in L cells and in primary cultures of mouse liver cells was tested essentially under conditions described in detail previously [A. A. Kandutsch and H. W. Chen, J. Biol. Chem., Vol. 248, pp. 8408-8417 (1973) and A. A. Kandutsch and H. W. Chen, J. Biol. Chem., Vol. 249, pp. 6057-6061 (1974`)].
(§2) The primary liver cell cultures were prepared from 16-day-old (C57BL/6J fetuses and grown in chemically defined medium (serum-free) as described in the above cited publications. The L cells, a subline of NCTC clone 929 mouse fibroblasts, were grown in chemically defined medium (serum-free) as described in the publications. These L cells are transformed fibroblasts which are regarded as malignant since they will grow as tumors if injected into the mouse strain from which they were initially obtained.
(§3) The preparation of steroid-containing media, procedures for assays of the conversion of [1-^14 C]acetate into digitonin-precipitable sterols, fatty acids, and CO2 and methods for the measurement of DNA, protein, and HMG-CoA reductase were as described in the published articles. L cell cultures were preincubated with the 15-oxygenated sterols and their derivatives for 4 hours, then [1-^14 C]acetate was added at a concentration of 4 μmoles per ml (4 μCi per ml); or the L cell cultures were incubated for 5 hours with the 15-oxygenated sterols before they were harvested for determination of microsomal HMG-CoA reductase activity.
(§4) Conditions for incubating the 15-oxygenated sterols or their derivatives with liver cell cultures were similar to those described for L cell cultures except that the cultures were incubated with the test compounds for 12 hours before labeled acetate was added or before they were harvested for enzyme assay.
The test compounds were tested over a range of at least 4 concentrations and the assay was repeated until the concentration of test compound required to produce 50% inhibition was located on the steeply declining portion of an activity vs. concentration plot. To diminish any possible effects of generalized differences in cellular metabolism, the rates of sterol synthesis from [1-^14 C]acetate were calculated as the ratio of [^14 C]sterols to [^14 C]fatty acids as described in the two cited articles by Kandutsch and Chen.

[5] = test system: HMG-CoA reductase; assay: Reduction of the activity of HMG-CoA reductase in L cell cultures; type: cell-based, mouse; details: read-out: Concentrations Required for 50% Reduction of the Activity of HMG-CoA Reductase
Summary of the method: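 Mouse L cells (NCTC clone 929 fibroblast subline) grown in serum-free chemically defined medium were incubated 5 h with 15-oxygenated sterols, then harvested for microsomal HMG-CoA reductase activity. Value is the sterol concentration reducing reductase activity by 50%.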

[6] = test system: HMG-CoA reductase; assay: Reduction of the activity of HMG-CoA reductase in primary cultures of liver cells; type: cell-based, mouse; details: read-out: Concentrations Required for 50% Reduction of the Activity of HMG-CoA Reductase
Protocol: as §2, §3, §4
A number of the 15-oxygenated sterols have also been tested with respect to their effects on the activity and/or levels of the enzyme HMG-CoA reductase (3-hydroxy-3-methylglutaryl coenzyme A reductase) in the L cells and in the liver cells. As noted previously, this enzyme catalyzes the reduction of 3-hydroxy-3-methylglutaryl coenzyme A to yield mevalonic acid, an essential intermediate in the biosynthesis of sterols and of a number of other essential compounds in cells.
Using the technique described by Kandutsch and Chen in the article cited in the previous example, the concentrations of various 15-oxygenated sterols required to reduce the levels of activity of HMG-CoA reductase by 50% was determined in the cells of the L cells in culture and of the primary cultures of liver cells.

[7] = test system: plasma cholesterol; assay: Plasma cholesterol concentration in mice, ketone in diet (Example 47); type: in vivo, mouse; details: 0.2% in diet; after eight days; 7-week-old mice
Protocol: Another dietary experiment with 5β-cholest-8(14)-en-3β-ol-15-one was performed using 7-week-old mice. Five mice were fed the ketone at a level of 0.2% in a diet which was essentially free of animal sterols for eight days. Five control pair-fed mice were fed the same diet to which the ketone was not added. The mean plasma cholesterol concentration in the ketone group after the eight day experiment was 35.8(±3.6, standard error of mean) mg per 100 ml of plasma while the corresponding value for the pair-fed group was 114.4 (±3.4, standard error of mean). It should be noted that very closely matched pairfeeding is difficult to perform in mice of this age due to the small amounts of food which are consumed and which must be accurately determined in such experiments.

## CC(C)CCC[C@@H](C)[C@H]1CC(=O)C2=C3CC[C@H]4C[C@@H](O)CC[C@]4(C)[C@H]3CC[C@@]21C [5α-Cholest-8(14)-en-3β-ol-15-one, 5α-cholest-8(14)-en-3β-ol-15-one]
[1]; 0.1% in diet
  food consumption relative to ad libidum group (in words): significantly less than that of the rats in the ad libidum group
[1]; 0.1% in diet, day 0
  Food consumption: 10.4 ± 0.7 g
[1]; 0.1% in diet, day 1
  Food consumption: 5.1 ± 0.3 g
[1]; 0.1% in diet, day 2
  Food consumption: 7.1 ± 0.3 g
[1]; 0.1% in diet, day 3
  Food consumption: 5.5 ± 0.3 g
[1]; 0.1% in diet, day 4
  Food consumption: 7.1 ± 0.5 g
[1]; 0.1% in diet, day 5
  Food consumption: 5.8 ± 0.5 g
[1]; 0.1% in diet, day 6
  Food consumption: 6.6 ± 0.5 g
[1]; 0.1% in diet, day 7
  Food consumption: 7.5 ± 0.5 g
[1]; 0.2% in diet
  food consumption relative to ad libidum group (in words): significantly less than that of the rats in the ad libidum group
[1]; 0.2% in diet, day 0
  Daily food consumption: 7.2 ± 0.6 g
[1]; 0.2% in diet, day 1
  Daily food consumption: 4.4 ± 1.1 g
[1]; 0.2% in diet, day 2
  Daily food consumption: 4.8 ± 0.4 g
[1]; 0.2% in diet, day 3
  Daily food consumption: 4.8 ± 0.2 g
[1]; 0.2% in diet, day 4
  Daily food consumption: 5.5 ± 0.4 g
[1]; 0.2% in diet, day 5
  Daily food consumption: 5.5 ± 0.3 g
[1]; 0.2% in diet, day 6
  Daily food consumption: 5.4 ± 0.2 g
[1]; 0.2% in diet, day 7
  Daily food consumption: 5.1 ± 0.2 g
[1]; 0.2% in diet, day 8
  Daily food consumption: 4.3 ± 0.6 g
[2]; day 8
  diarrhea: 4 of the rats in the ketone group were developing diarrhea
[2]; day 9
  death: One of these rats died the following day
  loose stools: Two other rats in this group showed loose stools on day 9
[3]
  IC50: 0.1 µM
[4]
  IC50: 4 µM
[5]
  IC50: 0.3 µM
[6]
  IC50: 4 µM
[7]
  mean plasma cholesterol concentration (standard error of mean): 35.8 mg per 100 ml of plasma
